Data from patent US8609682B2 (priority 2008, dated 2013).

Legend:
[1] = target: T1, mu/kappa opioid heterodimers (Mus musculus, UniProt P33534+P42866); assay type: cell-based, murine
T1 construct: expressed in transfected cells

[2] = target: T2, mu opioid receptor (Mus musculus, UniProt P42866); test: Ca2+ release, HEK-293 mu cells; assay type: cell-based, murine
T2 construct: expressed in transfected cells

[3] = target: mu/delta opioid receptors (Mus musculus, UniProt P32300+P42866); conditions: Mu/delta cells
mu/delta opioid receptors, sequence (P32300 whole entry): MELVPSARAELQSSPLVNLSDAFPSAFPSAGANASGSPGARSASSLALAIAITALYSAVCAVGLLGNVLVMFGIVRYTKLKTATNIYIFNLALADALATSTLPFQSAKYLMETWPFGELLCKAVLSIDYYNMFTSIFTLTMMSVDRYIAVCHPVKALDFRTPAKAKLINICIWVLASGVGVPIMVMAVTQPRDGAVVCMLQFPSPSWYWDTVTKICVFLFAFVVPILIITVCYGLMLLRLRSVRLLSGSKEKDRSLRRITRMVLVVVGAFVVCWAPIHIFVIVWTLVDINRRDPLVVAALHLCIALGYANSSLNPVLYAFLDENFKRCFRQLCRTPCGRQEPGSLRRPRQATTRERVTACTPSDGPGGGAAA
mu/delta opioid receptors, sequence (P42866 whole entry): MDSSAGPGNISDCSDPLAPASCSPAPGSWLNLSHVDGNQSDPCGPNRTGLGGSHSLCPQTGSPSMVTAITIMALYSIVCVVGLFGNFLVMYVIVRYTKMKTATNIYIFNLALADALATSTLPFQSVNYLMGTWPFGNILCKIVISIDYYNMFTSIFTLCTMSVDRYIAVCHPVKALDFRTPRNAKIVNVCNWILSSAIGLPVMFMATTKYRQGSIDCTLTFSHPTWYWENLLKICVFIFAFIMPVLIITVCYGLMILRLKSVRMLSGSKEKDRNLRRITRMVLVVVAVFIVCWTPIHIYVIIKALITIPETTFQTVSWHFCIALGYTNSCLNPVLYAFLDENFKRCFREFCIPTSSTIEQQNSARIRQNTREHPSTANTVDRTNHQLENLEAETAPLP

[4] = test system: mice; test: Radiant heat tail flick antinociception; assay type: in vivo, mouse
[5] = test system: mice; conditions: i.c.v. morphine-infused mice; cited from earlier work
[6] = test system: mice; conditions: chronic i.c.v. morphine; cited from earlier work
[7] = test system: mice; test: Conditioned place preference (CPP)
[8] = target: kappa/delta opioid receptors (Mus musculus, UniProt P32300+P33534)
kappa/delta opioid receptors, sequence (P33534 whole entry): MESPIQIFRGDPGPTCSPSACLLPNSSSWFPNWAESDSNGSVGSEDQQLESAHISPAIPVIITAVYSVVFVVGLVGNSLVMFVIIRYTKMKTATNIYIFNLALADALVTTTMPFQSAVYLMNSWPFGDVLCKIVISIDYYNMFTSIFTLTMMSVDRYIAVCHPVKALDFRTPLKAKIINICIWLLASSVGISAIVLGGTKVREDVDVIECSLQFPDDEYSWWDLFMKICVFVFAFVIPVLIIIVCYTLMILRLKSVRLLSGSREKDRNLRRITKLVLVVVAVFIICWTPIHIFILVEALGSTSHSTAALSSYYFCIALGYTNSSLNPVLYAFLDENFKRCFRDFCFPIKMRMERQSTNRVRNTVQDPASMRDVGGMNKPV
kappa/delta opioid receptors, sequence (P32300 whole entry): as the sequence (P32300 whole entry) above

[9] = target: delta opioid receptor (Mus musculus, UniProt P32300); conditions: Delta cells
delta opioid receptor, sequence (P32300 whole entry): as above

T2 sequence (P42866 whole entry): as the sequence (P42866 whole entry) above
T1 sequence (P42866 whole entry): as above
T1 sequence (P33534 whole entry): as the sequence (P33534 whole entry) above

In the case of `C[C@@H](NC(=O)[C@@H](N)Cc1ccc(O)cc1)C(=O)NCC(=O)N(C)[C@@H](Cc1ccccc1)C(=O)NCCO` [DAMGO, reference compound], the “AUCpeak (RFU X seconds), Ca2+ release” value [1] was 5562 ± 668, the “AUCpeak (RFU X seconds), Ca2+ release” value [2] was 9989 ± 702 RFU X seconds and the “AUCpeak (RFU X seconds), Ca2+ release” value [3] was 12054 ± 1281 RFU X seconds.

For `Oc1ccc2c3c1O[C@H]1c4[nH]c5ccccc5c4C[C@@]4(O)[C@@H](C2)N(CC2CC2)CC[C@]314` [NTI, naltrindole, reference compound], the “peak time of antagonist effect” value [4] was 20 min.

In the case of `CN1CC[C@]23c4c5ccc(O)c4O[C@H]2[C@@H](O)C=C[C@H]3[C@H]1C5` [morphine, reference compound], the “time of peak antinociception” value ([4]; i.v., preliminary studies, ICR mice) is listed as 15 min, the “ED50 (95% CI)” value ([4]; i.v., tail flick) is listed as 420 (378-469) nmol and the “naloxone-induced withdrawal jumping, previous studies” value [5] is listed as 100 jumps in 10 min. The “development of tolerance, previous studies, same protocol” value [6] was 6 fold, the place preference ([7]; 1200 nmol/kg) was “strong place preference” and the “place preference with naloxone” value ([7]; morphine 1200 nmol/kg plus naloxone 300 nmol/kg) was “can be blocked by naloxone”.

With `Oc1ccc2c3c1O[C@H]1c4[nH]c5c(c4C[C@@]4(O)[C@@H](C2)N(CC2CC2)CC[C@]314)C[C@@]1(O)[C@H]2Cc3ccc(O)c4c3[C@@]1(CCN2CC1CC1)[C@H]5O4` [norBNI, norbinaltorphimine, reference compound] the “peak time of antagonist effect” value [4] was 20 min.

In the case of “Cys2-Tyr3-Orn5-Pen7-amide [CTOP, reference compound]”, the “peak time of antagonist effect” value [4] was 20 min.

In the case of DPDPE, the “AUCpeak (RFU X seconds), Ca2+ release” value [8] was 10153 ± 1479, the “AUCpeak (RFU X seconds), Ca2+ release” value [3] was 10504 ± 969 RFU X seconds and the “AUCpeak (RFU X seconds), Ca2+ release” value [9] was 8319 ± 1117 RFU X seconds.
